Drawing on US11040031B2, “Pyrazole derivatives as MALT1 inhibitors” (Janssen Pharmaceutica NV, priority 2018, dated 2021), this text covers IC50 for 16 molecules.

pIC50: −log10 of the molar value. Read-outs that look alike come from different tables or passages of the source.

Experiment [1] relates to Secretion of IL10 by OCI-LY3 ABC-DLBCL cells. Put plainly: Human IL10 Mesoscale assay (OCI-LY3). In kind it is cell-based. Conditions: read-out: Human IL10 Mesoscale assay (OCI-LY3). The gist of the method: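 TMD8 or OCI-LY3 ABC-DLBCL cells incubated with compound 24 h at 37° C without beta-mercaptoethanol. Secreted IL6 and IL10 in supernatant quantified by MSD electrochemiluminescence immunoassay; DMSO wells define maximum signal.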

For experiment [2], the system named is Secretion of IL6 by OCI-LY3 ABC-DLBCL cells. Put plainly: Human IL6 Mesoscale assay (OCI-LY3). As to conditions: read-out: Human IL6 Mesoscale assay (OCI-LY3). The experiment is classed as cell-based. Here is the method: NFKB signaling regulates the secretion of multiple cytokines, including IL6 and IL10. Secretion of the cytokines IL6 and IL10 by TMD8 or OCI-LY3 ABC-DLBCL cells was measured using a mesoscale assay.
Cell passage number should not exceed 30. Cells should be kept between 0.5-2.5 million cells per mL during culturing and cells should be supplemented every 2-3 days with fresh 50 µM beta-mercaptoenthanol. No beta-mercaptoethanol was used during the mesoscale assay.
DMSO control wells were used to determine the maximum signal (High Control (HC)). […] Compounds and cells were incubated for 24 h at 37° C. and 5% CO2 (assay volume is 150 μL). After 24 h of incubation 50 μL of the supernatant was transferred to a MSD plate (V-Plex Proinflammation Panel 1 (human) kit, Mesoscale (MSD)) and incubated for 2 h with vigorous shaking (600 rpm) at room temperature. Following incubation, plates were washed 3× with PBS+0.05% Tween-20 and 25 μL detection antibody solution (IL6 & IL10 antibodies in diluent 3 (MSD)) was added per well followed by 2 h of incubation with vigorous shaking (600 rpm) at room temperature. After 3× washes with PBS+0.05% Tween-20, plates were incubated with 150 μL 2× Read Buffer T and read on SECTOR imager.

For experiment [3], the target named is T1, full-length MALT1 protein (Strep-MALT1(1-824)-His) (Homo sapiens, UniProt Q9UDY8).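 Further: fluorogenic LRSR-AMC substrate cleavage by MALT1, 50 min compound preincubation then 4 h reaction at RT, 11-point dilution from 30 µM, scaled between enzyme-free and untreated enzyme controls.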
T1 sequence (Q9UDY8 1-824): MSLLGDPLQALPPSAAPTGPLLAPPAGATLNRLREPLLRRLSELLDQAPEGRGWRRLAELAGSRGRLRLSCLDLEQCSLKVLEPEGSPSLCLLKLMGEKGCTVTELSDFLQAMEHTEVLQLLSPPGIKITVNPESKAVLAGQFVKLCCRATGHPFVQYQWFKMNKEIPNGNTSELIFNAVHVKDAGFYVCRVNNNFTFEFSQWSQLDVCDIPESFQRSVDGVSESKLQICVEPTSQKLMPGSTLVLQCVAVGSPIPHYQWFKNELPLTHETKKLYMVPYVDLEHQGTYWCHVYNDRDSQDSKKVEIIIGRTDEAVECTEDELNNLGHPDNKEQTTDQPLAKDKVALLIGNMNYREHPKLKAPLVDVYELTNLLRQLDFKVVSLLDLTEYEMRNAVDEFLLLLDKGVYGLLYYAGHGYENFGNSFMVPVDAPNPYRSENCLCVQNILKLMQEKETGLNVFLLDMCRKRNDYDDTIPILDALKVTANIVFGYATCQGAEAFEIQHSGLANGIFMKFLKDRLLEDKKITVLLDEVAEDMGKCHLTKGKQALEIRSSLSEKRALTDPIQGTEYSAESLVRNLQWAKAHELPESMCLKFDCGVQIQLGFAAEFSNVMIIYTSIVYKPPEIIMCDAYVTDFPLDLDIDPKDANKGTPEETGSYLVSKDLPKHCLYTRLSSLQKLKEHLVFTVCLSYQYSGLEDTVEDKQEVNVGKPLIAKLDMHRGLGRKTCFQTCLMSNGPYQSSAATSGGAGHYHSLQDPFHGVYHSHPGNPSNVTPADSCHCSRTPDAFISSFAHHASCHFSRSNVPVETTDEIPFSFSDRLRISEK
Put plainly: biochemical.

Where [4] appears, read: OCI-LY3 cells, 24 h incubation, supernatant, MSD V-Plex.

As for `Cc1cc(F)ccc1-n1ncc(C(=O)Nc2cc(C#N)c(-n3nccn3)nc2C)c1C(F)(F)F` [Cpd 170, N-(5-cyano-2-methyl-6-(2H-1,2,3-triazol-2-yl)pyridin-3-yl)-1-(4-fluoro-2-methylphenyl)-5-(trifluoromethyl)-1H-pyrazole-4-carboxamide], the pIC50 in experiment [1] (setting [4]) was 6.42; in experiment [2] (setting [4]), 6.38; in experiment [3], 6.99.
In the case of `Cc1c(F)cccc1-n1ncc(C(=O)Nc2cnc(-n3nccn3)c(Cl)c2)c1C(F)(F)F` [Cpd 171, N-(5-chloro-6-(2H-1,2,3-triazol-2-yl)pyridin-3-yl)-1-(3-fluoro-2-methylphenyl)-5-(trifluoromethyl)-1H-pyrazole-4-carboxamide], the figures for the pIC50 in experiment [1] (setting [4]), in experiment [2] (setting [4]) and in experiment [3] were 7.12, 7.01 and 6.84, respectively.
Regarding `Cc1cc(F)ccc1-n1ncc(C(=O)Nc2cc(Cl)c(-n3nccn3)nc2C)c1C(F)(F)F` [Cpd 172, N-(5-chloro-2-methyl-6-(2H-1,2,3-triazol-2-yl)pyridin-3-yl)-1-(4-fluoro-2-methylphenyl)-5-(trifluoromethyl)-1H-pyrazole-4-carboxamide], the pIC50 in experiment [1] (setting [4]) was 6.75; in experiment [2] (setting [4]), 6.70; in experiment [3] it was 6.82.
Consider `N#Cc1cc(NC(=O)c2cnn(-c3c(F)cc(F)cc3F)c2C(F)(F)F)cnc1-n1nccn1` [Cpd 173, N-(5-cyano-6-(2H-1,2,3-triazol-2-yl)pyridin-3-yl)-5-(trifluoromethyl)-1-(2,4,6-trifluorophenyl)-1H-pyrazole-4-carboxamide], for which the pIC50 is 7.02 in experiment [1] (setting [4]), 6.89 in experiment [2] (setting [4]) and 6.82 in experiment [3].
For `N#Cc1cc(NC(=O)c2cnn(-c3nc(N)ccc3Cl)c2C(F)(F)F)cnc1-n1nccn1` [Cpd 175, 1-(6-amino-3-chloropyridin-2-yl)-N-(5-cyano-6-(2H-1,2,3-triazol-2-yl)pyridin-3-yl)-5-(trifluoromethyl)-1H-pyrazole-4-carboxamide], the pIC50 in experiment [1] (setting [4]) is 6.64; in experiment [2] (setting [4]), 6.48; in experiment [3] it was 6.85.
Turning to `Cc1cc(N)nc(-n2ncc(C(=O)Nc3cnc(-n4nccn4)c(C#N)c3)c2C(F)(F)F)c1` [Cpd 176, 1-(6-amino-4-methylpyridin-2-yl)-N-(5-cyano-6-(2H-1,2,3-triazol-2-yl)pyridin-3-yl)-5-(trifluoromethyl)-1H-pyrazole-4-carboxamide], the pIC50 in experiment [1] (setting [4]) is 6.09; in experiment [2] (setting [4]), 6.09; in experiment [3], 6.77.
`Cc1nc(-n2nccn2)c(C#N)cc1NC(=O)c1cnn(-c2ccc(C#N)c(N)n2)c1C(F)(F)F` [Cpd 177, 1-(6-amino-5-cyanopyridin-2-yl)-N-(5-cyano-2-methyl-6-(2H-1,2,3-triazol-2-yl)pyridin-3-yl)-5-(trifluoromethyl)-1H-pyrazole-4-carboxamide]: the values for the pIC50 in experiment [1] (setting [4]), in experiment [2] (setting [4]) and in experiment [3] were 5.56, 5.13 and 6.71, respectively.
`Cc1nc(-n2nccn2)c(Cl)cc1NC(=O)c1cnn(-c2ccc(F)c(N)n2)c1C(F)(F)F` [Cpd 179, 1-(6-amino-5-fluoropyridin-2-yl)-N-(5-chloro-2-methyl-6-(2H-1,2,3-triazol-2-yl)pyridin-3-yl)-5-(trifluoromethyl)-1H-pyrazole-4-carboxamide]: the pIC50 in experiment [1] (setting [4]) was 6.49; in experiment [2] (setting [4]), 6.17; in experiment [3] it was 6.69.
Regarding `Nc1cccc(-n2ncc(C(=O)Nc3cnc(-n4nccn4)c(Cl)c3)c2C(F)(F)F)n1` [Cpd 180, 1-(6-aminopyridin-2-yl)-N-(5-chloro-6-(2H-1,2,3-triazol-2-yl)pyridin-3-yl)-5-(trifluoromethyl)-1H-pyrazole-4-carboxamide], the pIC50 in experiment [1] (setting [4]) was 6.77; in experiment [2] (setting [4]), 6.59; in experiment [3], 6.66.
As for `Cc1nc(-n2nccn2)c(Br)cc1NC(=O)c1cnn(-c2ccc(F)c(N)n2)c1C(F)(F)F` [Cpd 181, 1-(6-amino-5-fluoropyridin-2-yl)-N-(5-bromo-2-methyl-6-(2H-1,2,3-triazol-2-yl)pyridin-3-yl)-5-(trifluoromethyl)-1H-pyrazole-4-carboxamide], the pIC50 was 6.62 in experiment [1] (setting [4]), 6.44 in experiment [2] (setting [4]) and 6.63 in experiment [3].
As to `Cc1nc(-n2nccn2)c(C#N)cc1NC(=O)c1cnn(-c2ccc(F)c(N)n2)c1C(F)(F)F` [Cpd 182, 1-(6-amino-5-fluoropyridin-2-yl)-N-(5-cyano-2-methyl-6-(2H-1,2,3-triazol-2-yl)pyridin-3-yl)-5-(trifluoromethyl)-1H-pyrazole-4-carboxamide], the pIC50 was 6.41 in experiment [1] (setting [4]), 6.31 in experiment [2] (setting [4]) and 6.63 in experiment [3].
The matching figures for `Nc1ccc(Cl)c(-n2ncc(C(=O)Nc3cnc(-n4nccn4)c(Cl)c3)c2C(F)(F)F)n1` [Cpd 183, 1-(6-amino-3-chloropyridin-2-yl)-N-(5-chloro-6-(2H-1,2,3-triazol-2-yl)pyridin-3-yl)-5-(trifluoromethyl)-1H-pyrazole-4-carboxamide]: 6.71, 6.57 and 6.55.
Consider `Cc1ccc(N)nc1-n1ncc(C(=O)Nc2cnc(-n3nccn3)c(Cl)c2)c1C(F)(F)F` [Cpd 185, 1-(6-amino-3-methylpyridin-2-yl)-N-(5-chloro-6-(2H-1,2,3-triazol-2-yl)pyridin-3-yl)-5-(trifluoromethyl)-1H-pyrazole-4-carboxamide], for which the pIC50 in experiment [1] (setting [4]) is 6.45; in experiment [2] (setting [4]) it was 6.31; in experiment [3] it was 6.48.
As to `Cc1cc(-n2nccn2)c(Cl)cc1NC(=O)c1cnn(-c2ccc(F)c(N)n2)c1C(F)(F)F` [Cpd 193, 1-(6-amino-5-fluoropyridin-2-yl)-N-(5-chloro-2-methyl-4-(2H-1,2,3-triazol-2-yl)phenyl)-5-(trifluoromethyl)-1H-pyrazole-4-carboxamide], the pIC50 was 6.13 in experiment [1] (setting [4]), 6.06 in experiment [2] (setting [4]) and 5.93 in experiment [3].
Consider `Cc1cc(-n2nccn2)c(C#N)cc1NC(=O)c1cnn(-c2ccc(F)c(N)n2)c1C(F)(F)F` [Cpd 195, 1-(6-amino-5-fluoropyridin-2-yl)-N-(5-cyano-2-methyl-4-(2H-1,2,3-triazol-2-yl)phenyl)-5-(trifluoromethyl)-1H-pyrazole-4-carboxamide], for which the pIC50 is 5.73 in experiment [1] (OCI-Ly3, 24 h); 5.27 in experiment [2] (OCI-Ly3, 24 h); 5.92 in experiment [3].
In the case of `Cc1nc(-n2nccn2)c(C#N)cc1NC(=O)c1cnn(-c2ccc(Cl)c(N)n2)c1C(F)(F)F` [Cpd 200, 1-(6-amino-5-chloropyridin-2-yl)-N-(5-cyano-2-methyl-6-(2H-1,2,3-triazol-2-yl)pyridin-3-yl)-5-(trifluoromethyl)-1H-pyrazole-4-carboxamide], the figures for the pIC50 in experiment [1] (setting [4]), in experiment [2] (setting [4]) and in experiment [3] were 6.61, 6.10 and 6.56, respectively.
